Measured values: patent publication US11298383B2, “Lactobacillus and bacillus based direct fed microbial treatment for poultry and method of use” (priority 2016, dated 2022)

Tests used:
[1] = tested on: avian pathogenic Escherichia coli (APEC); test: APEC levels in GI tract of commercial broilers at 12-15 days, with and without in ovo gentamycin (Example 2); format: in vivo; conditions: GI tract of broilers at 12-15 days of age
[2] = tested on: avian pathogenic Escherichia coli (APEC); format: in vivo; conditions: 3 days of age; ½ dose in ovo gentamycin; all birds treated with the product
[3] = tested on: inflammatory cytokine gene expression (MIP2, TNFα, IL-6) in IEC-6 rat intestinal epithelial cells; test: Inflammatory cytokine gene expression (qPCR) in IEC-6 cells with and without LPS challenge (Example 6); format: cell-based; conditions: LPS alone, 1 hr at 37° C.

## gentamycin
[1]
  birds with detectable levels of APEC: 2 out of 10 birds
[1]; ten birds per treatment
  average APEC level: 6.6×10^1 CFU/g
[2]
  APEC levels, gentamycin-treated vs untreated birds: not statistically different

## Lipopolysaccharide
[3]
  increase in gene expression of all three inflammatory cytokines (MIP2, TNFα, IL-6) relative to unstimulated control cells: > 50 fold
